Results as given in EP4763971A1, “MULTI-ORGANS-ON-A-CHIP WITH INVERTED MICROWEIR STRUCTURE AS MULTI-CELL CULTURE PLATFORM AND USE THEREOF” (Humanase, priority 2023, dated 2025).
Where two headings read alike, the source gives them in different places.

Experiments:
[1] = system: cardiomyocytes (Cardiosight-S); settings: control heart-on-a-chip, 9,000 µM cyclophosphamide, compared to cardiomyocytes not treated with cyclophosphamide
From the text: (§1) Next, cardiomyocytes (Cardiosight-S) differentiated from human pluripotent stem cells (hPSCs) from NEXEL were mixed with a hydrogel such as collagen, and then injected using a pipette into the cell inlet connected to the inner cell chamber of the multi-organ-on-a-chip prepared in Example 1, thereby injecting cardiomyocytes into the inner cell chamber.
(§2) Next, the hydrogel comprised in the injected cardiomyocyte mixture was cured to fix the cardiomyocytes within the cell chamber. Depending on the type of hydrogel, curing is performed using different curing methods. In the case of collagen, curing was performed via temperature change by placing in an incubator for at least 1 hour, and then cardiomyocytes were continuously cultured in the incubator.
The culture was performed by supplying a culture medium comprising a mixture of Cardiosight-S Media supplemented with supplement (50X) and Minimum Essential Media Eagle (MEM, high-glucose, gibco) supplemented with 25 mM HEPES (4-(2-hydroxyethyl)-1-piperazineethanesulfonic acid, gibco), 10% (v/v) FBS, P/S (100 Uml-1 penicillin/100 Uml-1 streptomycin, Sigma-Aldrich Co., MO) at a certain ratio. […]

[2] = system: cardiomyocytes (Cardiosight-S)
Method: as §1
Next, 1 x 10^5 cultured hepatocytes (HepG2) were injected using a pipette into each cell inlet connected to the two outer cell chambers of the multi-organ-on-a-chip prepared in Example 1, thereby injecting hepatocytes into the two outer cell chambers.
as §2
Further, hepatocytes were fixed and cultured using the same method. […]

Compound: O=P1(N(CCCl)CCCl)NCCCO1 (stereo not drawn) [cyclophosphamide]
- beating rate of the cardiomyocytes increased [1]: 31.76 ± 0.59%
- effect on the beating rate of cardiomyocytes ([2]; liver-heart-on-a-chip compared to the control heart-on-a-chip, 0, 1,000, 5,000, or 9,000 µM (FIG. 8)): more significant effect
- beating rate of the cardiomyocytes increased ([2]; liver-heart-on-a-chip, 9,000 µM cyclophosphamide, compared to cardiomyocytes not treated with cyclophosphamide): 177.9 ± 2.56%
